Test results: ChEMBL document CHEMBL3425403, “De novo design of caseinolytic protein proteases inhibitors based on pharmacophore and 2D molecular fingerprints” (Bioorg Med Chem Lett, 2015)

tested on: Staphylococcus aureus; assay: Inhibition of Staphylococcus aureus caseinolytic protein protease using fluorogenic substrate assessed as residual activity at 10 uM after 15 mins

In order of rising Activity:
1. CCCCCCCCCC[C@@H]1C(=O)O[C@H]1CCCCS(=O)(=O)CCCN(C)C  0%
2. C=CCCCCCCC[C@H]1C(=O)O[C@@H]1CCc1cccnc1  0%
3. CCCCCCCCCC[C@@H]1C(=O)O[C@H]1CCCS(=O)(=O)CCC[N+](C)(C)C  0%
4. CCCCCCCCCC[C@@H]1C(=O)O[C@H]1CCCCSCCCN(C)C  0%
5. CCCCCCCCCC[C@@H]1C(=O)O[C@H]1CCCS(=O)(=O)CCCN(C)C  0%
6. CCCCCCCCCC[C@@H]1C(=O)O[C@H]1CCSCCCN(C)C  1%
7. CCCCCCCCCC[C@@H]1C(=O)O[C@H]1CCCCCSCCCN(C)C  1%
8. CCCCCCCCCC[C@@H]1C(=O)O[C@H]1CCS(=O)(=O)CCCN(C)C  1%
9. CCCCCCCCCC[C@@H]1C(=O)O[C@H]1CCCCCS(=O)(=O)CCC[N+](C)(C)C  1%
10. CCCCCCCCCC[C@@H]1C(=O)O[C@H]1CCCCCS(=O)(=O)CCCN(C)C  5%
11. CCCCCCCCCC[C@H]1C(=O)O[C@@H]1CCCS(=O)(=O)CCC[N+](C)(C)C  7%
12. CCCCCCCCCC[C@H]1C(=O)O[C@@H]1CCCS(=O)(=O)CCCN(C)C  8%
13. CCCCCCCCCC[C@H]1C(=O)O[C@@H]1CCCCCS(=O)(=O)CCC[N+](C)(C)C  9%
14. CCCCCCCCCC[C@H]1C(=O)O[C@@H]1CCCCS(=O)(=O)CCC[N+](C)(C)C  9%
15. CCCCCCCCCC[C@H]1C(=O)O[C@@H]1CCCCCS(=O)(=O)CCCN(C)C  10%
16. CCCCCCCCCC[C@H]1C(=O)O[C@@H]1CCSCCCN(C)C  11%
17. CCCCCCCCCC[C@H]1C(=O)O[C@@H]1CCCCS(=O)(=O)CCCN(C)C  13%
18. C=CCCCCCCC[C@H]1C(=O)O[C@@H]1CCCCCNC(=O)c1ccc(N(C)C)cc1  30%
19. CCCCCCCCCC[C@@H]1C(=O)O[C@H]1CCCCS(=O)(=O)CCC[N+](C)(C)C  36%
20. CCCCCCCCCC[C@H]1C(=O)O[C@@H]1CCS(=O)(=O)CCCN(C)C  37%
21. CCCCCCCCCC[C@@H]1C(=O)O[C@H]1CCCSCCCN(C)C  40%
22. C=CCCCCCCC[C@H]1C(=O)O[C@@H]1CCc1ccccc1  70%
23. C#CCCC[C@@H]1OC(=O)[C@H]1CCCCCCCCCCCC  95%
24. C=CCCCCCCCC[C@H]1OC(=O)[C@@H]1CCCCCCCCCNC(=O)OC(C)(C)C  95%
25. CCCCCCCCCCCC[C@H]1C(=O)O[C@@H]1CCc1ccccc1  95%
26. C=CCCCCCCCCC(=O)OC  96%
27. C#CCCCOC(=O)NCCCCC  100%
28. C#CCCCOC(=O)NCCCCCCCC=C  101%
29. C=CCCCCCCCCC(=O)OC(C)(C)C  103%
30. C=CCCCCCCC[C@H]1C(=O)O[C@@H]1CCCCCCCCCCCNC(=O)OC(C)(C)C  105%
31. O=C1OC[C@H]1CCc1ccccc1  108%
32. O=C1OC[C@@H]1CCc1ccccc1  108%
